Biological target: Platelet-activating factor receptor (Homo sapiens, UniProt P25105)
Assay: Inhibition of [3H]PAF binding to platelet activating factor receptor in human platelet

Sequence of Platelet-activating factor receptor (P25105 whole entry): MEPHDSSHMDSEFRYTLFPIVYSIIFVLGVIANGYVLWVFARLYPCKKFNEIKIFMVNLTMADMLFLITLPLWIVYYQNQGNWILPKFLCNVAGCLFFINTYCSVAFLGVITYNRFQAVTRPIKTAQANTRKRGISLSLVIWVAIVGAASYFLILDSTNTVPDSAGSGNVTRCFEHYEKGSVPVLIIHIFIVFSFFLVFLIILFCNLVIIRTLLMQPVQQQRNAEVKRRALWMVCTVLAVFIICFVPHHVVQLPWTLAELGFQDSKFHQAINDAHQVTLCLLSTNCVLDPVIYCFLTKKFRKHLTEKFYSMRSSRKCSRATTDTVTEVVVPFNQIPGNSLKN

Structure (SMILES)	IC50
C/C1=C\CC[C@]2(C)O[C@H]2[C@@]2(O)OCC3=C2CC[C@@H](C)[C@]3(C)CC1	0.575 µM
C/C1=C\CC[C@]2(C)O[C@@H]3C[C@@H](C)[C@](C)(CC1)[C@]14CO[C@](O)([C@H]2O)[C@]31O4	2.34 µM
C/C1=C\CC[C@@]2(C)O[C@@H]2[C@@]2(O)OCC3=C2[C@@H](O)C[C@@H](C)[C@]3(C)CC1	1.45 µM
C/C1=C\CC[C@]2(C)O[C@H]2[C@@]2(O)OCC3=C2[C@H](O)C[C@@H](C)[C@]3(C)CC1	1.12 µM
C/C1=C\CC[C@]2(C)O[C@@H]3C[C@@H](C)C(C)(CC1)C1=C3[C@](O)(OC1)[C@H]2O (single isomer, unassigned)	1.26 µM

Next, values leading:

IC50	Structure (SMILES)
0.575 µM	C/C1=C\CC[C@@]2(C)O[C@@H]2[C@@]2(O)OCC3=C2CC[C@@H](C)[C@]3(C)CC1
1.15 µM	C/C1=C\[C@@]2(O)OC[C@]34O[C@]23CC[C@@H](C)C4(C)CC/C(C)=C/CC1 (single isomer, unassigned)

Reference: ChEMBL document CHEMBL1140239, “Novel phomactin analogues as PAF receptor ligands” (Bioorg Med Chem Lett, 2005)
